Data as given in BigSolDB 2.1.

O=C(O)c1cccc([N+](=O)[O-])c1C(=O)O
Conditions | solubility (mole fraction)
in 1,4-dioxane, 288.17 K | 0.0758
in 1,4-dioxane, 293.28 K | 0.0868
in 1,4-dioxane, 298.31 K | 0.097
in 1,4-dioxane, 303.29 K | 0.107
in 1,4-dioxane, 308.26 K | 0.116
in 1,4-dioxane, 313.2 K | 0.124
in 1,4-dioxane, 318.21 K | 0.132
in 1,4-dioxane, 323.29 K | 0.139
in 1,4-dioxane, 328.19 K | 0.146
in 1,4-dioxane, 333.18 K | 0.152
in 1,4-dioxane, 338.22 K | 0.158
in 1,4-dioxane, 343.16 K | 0.163
in 1,4-dioxane, 348.23 K | 0.167
in 1,4-dioxane, 353.32 K | 0.171
in THF, 278.28 K | 0.203
in THF, 283.17 K | 0.204
in THF, 288.16 K | 0.204
in THF, 293.21 K | 0.205
in THF, 298.29 K | 0.206
in THF, 303.28 K | 0.207
in THF, 308.19 K | 0.208
in THF, 313.23 K | 0.209
in THF, 318.24 K | 0.21
in THF, 323.16 K | 0.211
in THF, 328.19 K | 0.213
in THF, 333.17 K | 0.214
in acetone, 278.16 K | 0.0525
in acetone, 283.18 K | 0.0541
in acetone, 288.27 K | 0.056
in acetone, 293.33 K | 0.0582
in acetone, 298.24 K | 0.0604
in acetone, 303.19 K | 0.0629
in acetone, 308.32 K | 0.0657
in acetone, 313.16 K | 0.0685
in acetone, 318.2 K | 0.0717
in ethyl acetate, 283.2 K | 0.00793
in ethyl acetate, 288.26 K | 0.00847
in ethyl acetate, 293.28 K | 0.00902
in ethyl acetate, 298.19 K | 0.00958
in ethyl acetate, 303.21 K | 0.0102
in ethyl acetate, 308.3 K | 0.0109
in ethyl acetate, 313.16 K | 0.0116
in ethyl acetate, 318.22 K | 0.0124
in ethyl acetate, 323.16 K | 0.0134
in ethyl acetate, 328.23 K | 0.0144
in ethyl acetate, 333.17 K | 0.0156
in ethyl formate, 283.17 K | 0.00268
in ethyl formate, 288.18 K | 0.00287
in ethyl formate, 293.21 K | 0.00309
in ethyl formate, 298.26 K | 0.00335
in ethyl formate, 303.16 K | 0.00363
in ethyl formate, 308.19 K | 0.00396
in ethyl formate, 313.27 K | 0.00433
in ethyl formate, 318.25 K | 0.00473
in ethyl formate, 323.29 K | 0.00517
in methyl acetate, 278.17 K | 0.0334
in methyl acetate, 283.26 K | 0.0343
in methyl acetate, 288.27 K | 0.0353
in methyl acetate, 293.21 K | 0.0365
in methyl acetate, 298.24 K | 0.0378
in methyl acetate, 303.16 K | 0.0392
in methyl acetate, 308.22 K | 0.0407
in methyl acetate, 313.28 K | 0.0422
in methyl acetate, 318.17 K | 0.0437
in methyl acetate, 323.19 K | 0.0452
in n-butyl acetate, 283.18 K | 0.00243
in n-butyl acetate, 288.16 K | 0.00297
in n-butyl acetate, 293.21 K | 0.00353
in n-butyl acetate, 298.19 K | 0.0041
in n-butyl acetate, 303.22 K | 0.0047
in n-butyl acetate, 308.26 K | 0.00531
in n-butyl acetate, 313.27 K | 0.00594
in n-butyl acetate, 318.18 K | 0.00657
in n-butyl acetate, 323.22 K | 0.00724
in n-butyl acetate, 328.24 K | 0.00792
in n-butyl acetate, 333.19 K | 0.0086
in n-butyl acetate, 338.28 K | 0.00933
in n-butyl acetate, 343.25 K | 0.0101
in n-butyl acetate, 348.24 K | 0.0108
in n-butyl acetate, 353.26 K | 0.0116
in water, 283.18 K | 0.00115
in water, 288.26 K | 0.00129
in water, 293.27 K | 0.00152
in water, 298.21 K | 0.00179
in water, 303.19 K | 0.00211
in water, 308.22 K | 0.0025
in water, 313.19 K | 0.003
in water, 318.29 K | 0.00367
in water, 323.18 K | 0.00451
in water, 328.31 K | 0.00569
in water, 333.22 K | 0.00724
in water, 338.18 K | 0.00943
in water, 343.17 K | 0.0126
in water, 348.16 K | 0.0172
in water, 353.28 K | 0.0241
